In US20090036448A1, “PYRIMIDINE DERIVATIVES AND METHODS OF TREATMENT RELATED TO THE USE THEREOF” (TAISHO PHARMECUTICAL CO., LTD., priority 2004, published 2009):

Each compound was assayed against MCH receptor (Homo sapiens, UniProt Q99705) (assay: Receptor binding assay with Radiolabelled MCH Ligand). Settings: class by percent of control at 10^-7 M or IC50.
Design: expressed in transfected cells; host or cells: 293 cells (human kidney, ATCC), transient transfection; crude membranes
Description: In addition to the methods described herein, another means for evaluating a test compound is by determining binding affinities to the MCH receptor. This type of assay generally requires a radiolabelled ligand to the MCH receptor. Absent the use of known ligands for the MCH receptor and radiolabels thereof, compounds of Formula (I) can be labelled with a radioisotope and used in an assay for evaluating the affinity of a test compound to the MCH receptor.
A radiolabelled MCH compound of Formula (I) can be used in a screening assay to identify/evaluate compounds. In general terms, a newly synthesized or identified compound (i.e., test compound) can be evaluated for its ability to reduce binding of the “radiolabelled compound of Formula (I)” to the MCH receptor. Accordingly, the ability to compete with the “radio-labelled compound of Formula (I)” or Radiolabelled MCH Ligand for the binding to the MCH receptor directly correlates to its binding affinity of the test compound to the MCH receptor.
293 cells (human kidney, ATCC), transiently transfected with 10 μg human MCH receptor and 60 μl Lipofectamine (per 15-cm dish), are grown in the dish for 24 hours (75% confluency) with a media change and removed with 10 mL/dish of Hepes-EDTA buffer (20 mM Hepes+10 mM EDTA, pH 7.4). The cells are then centrifuged in a Beckman Coulter centrifuge for 20 minutes, 17,000 rpm (JA-25.50 rotor). Subsequently, the pellet is resuspended in 20 mM Hepes+1 mM EDTA, pH 7.4 and homogenized with a 50-mL Dounce homogenizer and again centrifuged. After removing the supernatant, the pellets can be stored at −80° C., until used in binding assay. When used in the assay, membranes are thawed on ice for 20 minutes and then 10 mL of incubation buffer (20 mM Hepes, 1 mM MgCl2, 100 mM NaCl, pH 7.4) added. The membranes are then vortexed to resuspend the crude membrane pellet and homogenized with a Brinkmann PT-3100 Polytron homogenizer for 15 seconds at setting 6. The concentration of membrane protein is determined using the BRL Bradford protein assay.
For total binding, a total volume of 50 ul of appropriately diluted membranes (diluted in assay buffer containing 50 mM Tris HCl (pH 7.4), 1 mM MgCl2, and 1 mM EDTA; 5-50 ug protein) is added to 96-well polyproylene microtiter plates followed by addition of 100 μl of assay buffer and 50 μl of Radiolabelled MCH Ligand. For nonspecific binding, 50 μl of assay buffer is added instead of 100 μl and an additional 50 μl of 10 uM cold MCH is added before 50 μl of Radiolabelled MCH Ligand is added. Plates are then incubated at room temperature for 60-120 minutes. The binding reaction is terminated by filtering assay plates through a Microplate Devices GF/C Unifilter filtration plate with a Brandell 96-well plate harvester followed by washing with cold 50 mM Tris HCl, pH 7.4 containing 0.9% NaCl. Then, the bottom of the filtration plate are sealed, 50 ul of Optiphase Supermix is added to each well, the top of the plates are sealed, and plates are counted in a Trilux MicroBeta scintillation counter. For compound competition studies, instead of adding 100 μl of assay buffer, 100 μl of appropriately diluted test compound is added to appropriate wells followed by addition of 50 μl of Radiolabelled MCH Ligand.
The test compounds are initially assayed at 1 and 0.1 μM and then at a range of concentrations chosen such that the middle dose would cause about 50% inhibition of a Radiolabelled MCH Ligand binding (i.e., IC50). Specific binding in the absence of test compound (BO) is the difference of total binding (BT) minus non-specific binding (NSB) and similarly specific binding (in the presence of test compound) (B) is the difference of displacement binding (BD) minus non-specific binding (NSB). IC50 is determined from an inhibition response curve, logit-log plot of % B/BO vs. concentration of test compound.
Ki is calculated by the Cheng and Prustoff transformation: […]

MCH receptor, sequence (Q99705 whole entry): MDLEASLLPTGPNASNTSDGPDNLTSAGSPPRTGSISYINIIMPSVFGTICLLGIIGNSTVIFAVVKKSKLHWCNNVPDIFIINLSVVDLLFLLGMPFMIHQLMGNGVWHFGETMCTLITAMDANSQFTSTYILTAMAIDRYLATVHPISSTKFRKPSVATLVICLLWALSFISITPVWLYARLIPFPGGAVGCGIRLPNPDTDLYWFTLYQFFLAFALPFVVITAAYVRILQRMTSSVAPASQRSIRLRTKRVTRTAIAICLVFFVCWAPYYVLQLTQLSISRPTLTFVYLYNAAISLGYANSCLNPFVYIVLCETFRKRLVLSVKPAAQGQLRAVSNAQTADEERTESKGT

Row | Compound | class
1 | CC(=O)OC(C(=O)N[C@H]1CC[C@@H](Nc2cc(N(C)C)nc(C)n2)CC1)c1ccccc1 (relative stereo) [compound 197] | 3 (Class 3: The value of percent of control at 10^−7 M was more than 60% or the value of IC50 was more than 200 nM.)
2 | Cc1nc(N[C@H]2CC[C@@H](NC(=O)[C@@H]3CCCN3S(=O)(=O)c3ccc(C(C)(C)C)cc3)CC2)cc(N(C)C)n1 (relative stereo) [compound 277] | 3 (Class 3: The value of percent of control at 10^−7 M was more than 60% or the value of IC50 was more than 200 nM.)
3 | Cc1nc(N[C@H]2CC[C@@H](NC(=O)CC(C)S(=O)(=O)c3ccc(Cl)cc3)CC2)cc(N(C)C)n1 (relative stereo) [compound 281] | 3 (Class 3: The value of percent of control at 10^−7 M was more than 60% or the value of IC50 was more than 200 nM.)
4 | Cc1nc(N[C@H]2CC[C@@H](NC(=O)C3CC(=O)N(Cc4cccs4)C3)CC2)cc(N(C)C)n1 (relative stereo) [compound 282] | 3 (Class 3: The value of percent of control at 10^−7 M was more than 60% or the value of IC50 was more than 200 nM.)
5 | Cc1nc(N[C@H]2CC[C@@H](NC(=O)C(C)c3ccc(-c4ccccc4)c(F)c3)CC2)cc(N(C)C)n1 (relative stereo) [compound 284] | 3 (Class 3: The value of percent of control at 10^−7 M was more than 60% or the value of IC50 was more than 200 nM.)
6 | Cc1nc(N[C@H]2CC[C@@H](NC(=O)C(C)c3ccc(N4Cc5ccccc5C4=O)cc3)CC2)cc(N(C)C)n1 (relative stereo) [compound 286] | 3 (Class 3: The value of percent of control at 10^−7 M was more than 60% or the value of IC50 was more than 200 nM.)
7 | COc1ccc2c(c1)C(CC(=O)N[C@H]1CC[C@@H](Nc3cc(N(C)C)nc(C)n3)CC1)CC2=O (relative stereo) [compound 290] | 3 (Class 3: The value of percent of control at 10^−7 M was more than 60% or the value of IC50 was more than 200 nM.)
8 | Cc1nc(N[C@H]2CC[C@@H](NC(=O)C3CC(=O)c4ccccc43)CC2)cc(N(C)C)n1 (relative stereo) [compound 299] | 3 (Class 3: The value of percent of control at 10^−7 M was more than 60% or the value of IC50 was more than 200 nM.)
9 | Cc1ccc(C(=O)CC(Sc2ccc(Cl)cc2)C(=O)N[C@H]2CC[C@@H](Nc3cc(N(C)C)nc(C)n3)CC2)cc1 (relative stereo) [compound 310] | 3 (Class 3: The value of percent of control at 10^−7 M was more than 60% or the value of IC50 was more than 200 nM.)
10 | Cc1ccc(SC(CC(=O)c2ccc(F)cc2)C(=O)N[C@H]2CC[C@@H](Nc3cc(N(C)C)nc(C)n3)CC2)cc1 (relative stereo) [compound 311] | 3 (Class 3: The value of percent of control at 10^−7 M was more than 60% or the value of IC50 was more than 200 nM.)
11 | Cc1nc(N[C@H]2CC[C@@H](NC(=O)C(C)c3ccc(C(=O)c4cccs4)cc3)CC2)cc(N(C)C)n1 (relative stereo) [compound 312] | 3 (Class 3: The value of percent of control at 10^−7 M was more than 60% or the value of IC50 was more than 200 nM.)
12 | Cc1nc(N[C@H]2CC[C@@H](NC(=O)CC(C)C(F)(F)F)CC2)cc(N(C)C)n1 (relative stereo) [compound 314] | 3 (Class 3: The value of percent of control at 10^−7 M was more than 60% or the value of IC50 was more than 200 nM.)
13 | Cc1nc(N[C@H]2CC[C@@H](NC(=O)C(C(=O)OCc3ccccc3)c3ccccc3)CC2)cc(N(C)C)n1 (relative stereo) [compound 321] | 3 (Class 3: The value of percent of control at 10^−7 M was more than 60% or the value of IC50 was more than 200 nM.)
14 | COC(=O)[C@H](Cc1ccccc1)NC(=O)N[C@H]1CC[C@@H](Nc2cc(N(C)C)nc(C)n2)CC1 (relative stereo) [compound 411] | 3 (Class 3: The value of percent of control at 10^−7 M was more than 60% or the value of IC50 was more than 200 nM.)
15 | Cc1nc(N[C@H]2CC[C@@H](NC(=O)NC(C)c3cccc4ccccc34)CC2)cc(N(C)C)n1 (relative stereo) [compound 415, N-(cis-4-{[6-(dimethylamino)-2-methylpyrimidin-4-yl]amino}cyclohexyl)-N′-[1-(1-naphthyl)ethyl]urea] | 1 (Class 1: The value of percent of control at 10^−7 M was less than 40% or the value of IC50 was less than 50 nM.)
16 | Cc1nc(N[C@H]2CC[C@@H](NC(=O)c3ccc4c(c3)C(=O)c3ccccc3C4=O)CC2)cc(N(C)C)n1 [compound 198] | 3 (Class 3: The value of percent of control at 10^−7 M was more than 60% or the value of IC50 was more than 200 nM.)
17 | CC(=O)N[C@H]1CC[C@@H](Nc2cc(N(C)C)nc(C)n2)CC1 [compound 199] | 3 (Class 3: The value of percent of control at 10^−7 M was more than 60% or the value of IC50 was more than 200 nM.)
18 | Cc1nc(N[C@H]2CC[C@@H](NC(=O)c3ccccc3)CC2)cc(N(C)C)n1 [compound 200, N-(cis-4-{[6-(dimethylamino)-2-methylpyrimidin-4-yl]amino}cyclohexyl)benzamide] | 2 (Class 2: The value of percent of control at 10^−7 M was from 40% to 60% or the value of IC50 was from 50 nM to 200 nM.)
19 | Cc1nc(N[C@H]2CC[C@@H](NC(=O)c3ccc(-c4ccccc4)cc3)CC2)cc(N(C)C)n1 [compound 201] | 3 (Class 3: The value of percent of control at 10^−7 M was more than 60% or the value of IC50 was more than 200 nM.)
20 | Cc1nc(N[C@H]2CC[C@@H](NC(=O)c3ccc(C(C)(C)C)cc3)CC2)cc(N(C)C)n1 [compound 202] | 3 (Class 3: The value of percent of control at 10^−7 M was more than 60% or the value of IC50 was more than 200 nM.)
21 | Cc1nc(N[C@H]2CC[C@@H](NC(=O)c3cc4ccccc4s3)CC2)cc(N(C)C)n1 [compound 203] | 3 (Class 3: The value of percent of control at 10^−7 M was more than 60% or the value of IC50 was more than 200 nM.)
22 | Cc1nc(N[C@H]2CC[C@@H](NC(=O)Cc3ccc(OCc4ccccc4)cc3)CC2)cc(N(C)C)n1 [compound 204] | 3 (Class 3: The value of percent of control at 10^−7 M was more than 60% or the value of IC50 was more than 200 nM.)
23 | Cc1nc(N[C@H]2CC[C@@H](NC(=O)c3ccc(Br)cc3)CC2)cc(N(C)C)n1 [compound 205] | 3 (Class 3: The value of percent of control at 10^−7 M was more than 60% or the value of IC50 was more than 200 nM.)
24 | Cc1nc(N[C@H]2CC[C@@H](NC(=O)COCc3ccccc3)CC2)cc(N(C)C)n1 [compound 206] | 3 (Class 3: The value of percent of control at 10^−7 M was more than 60% or the value of IC50 was more than 200 nM.)
25 | Cc1nc(N[C@H]2CC[C@@H](NC(=O)c3ccc4nonc4c3)CC2)cc(N(C)C)n1 [compound 207, N-(cis-4-{[6-(dimethylamino)-2-methylpyrimidin-4-y]amino}cyclohexyl)-2,1,3-benzoxadiazole-5-carboxamide] | 3 (Class 3: The value of percent of control at 10^−7 M was more than 60% or the value of IC50 was more than 200 nM.)
26 | Cc1nc(N[C@H]2CC[C@@H](NC(=O)c3ccc(Cl)cc3)CC2)cc(N(C)C)n1 [compound 208, 4-chloro-N-(cis-4-{[6-(dimethylamino)-2-methylpyrimidin-4-yl]amino}cyclohexyl)benzamide] | 2 (Class 2: The value of percent of control at 10^−7 M was from 40% to 60% or the value of IC50 was from 50 nM to 200 nM.)
27 | Cc1nc(N[C@H]2CC[C@@H](NC(=O)COc3ccc(Cl)cc3)CC2)cc(N(C)C)n1 [compound 209] | 3 (Class 3: The value of percent of control at 10^−7 M was more than 60% or the value of IC50 was more than 200 nM.)
